Molecules are shown by their SMILES.

Series [1] can be described thus: logP by HPLC on reverse-phase column (C 18), acidic range. Format: physicochemical. The following applies: for logP a): acidic range: 0.1% aqueous phosphoric acid/acetonitrile gradient, HPLC C 18, 43° C.; for logP: HPLC reverse-phase column (C 18), 43° C., acidic range: 0.1% aqueous phosphoric acid, acetonitrile; data labelled a). As to the method: (§1) The logP values given in Table 1 were determined in accordance with EE Directive 79/831 Annex V.A8 by HPLC (High Performance Liquid Chromatography) using a reverse-phase column (C 18). Temperature: 43° C. (a) Mobile phases for the determination in the acidic range: 0.1% aqueous phosphoric acid, acetonitrile; linear gradient from 10% acetonitrile to 90% acetonitrile—the corresponding data in Table 1 are labelled ^a). Calibration was carried out using unbranched alkan-2-ones (with from 3 to 16 carbon atoms) whose logP values are known (determination of the logP values by the retention times using linear interpolation between two successive alkanones). The logP values given in Table 3 were determined in accordance with EEC Directive 79/831 Annex V.A8 by HPLC (High Performance Liquid Chromatography) using a reverse-phase column (C 18). Temperature: 43° C. (a) Mobile phases for the determination in the acidic range: 0.1% aqueous phosphoric acid, acetonitrile; linear gradient from 10% acetonitrile to 90% acetonitrile—the corresponding data in Table 3 are labelled ^a). Calibration was carried out using unbranched alkan-2-ones (with from 3 to 16 carbon atoms) whose logP values are known (determination of the logP values by the retention times using linear interpolation between two successive alkanones).

For series [2], the system named is weeds. As to the kind of experiment: Pre-emergence test, action against weeds. It counts as in vivo. The following applies: soil sprayed about 24 hours after sowing, rated after three weeks. As to the method:
(§2) Pre-emergence Test [table] To produce a suitable preparation of active compound, 1 part by weight of active compound is mixed with the stated amount of solvent, the stated amount of emulsifier is added and the concentrate is diluted with water to the desired concentration. Seeds of the test plants are sown in normal soil. After about 24 hours, the soil is sprayed with the preparation of active compound such that the particular amount of active compound desired is applied per unit area. The concentration of the spray liquor is chosen so that the particular amount of active compound desired is applied in 1000 liters of water per hectare. After three weeks, the degree of damage to the plants is rated in % damage in comparison to the development of the untreated control. The figures denote: [table]

In series [3] the test system is crop plants, such as, for example, maize. The series is described as follows: Pre-emergence test, tolerance by crop plants. The following applies: rated after three weeks. It counts as in vivo. As to the method:
as §2

Series [4] relates to weeds. The series is described as follows: Post-emergence test, activity against weeds. Format: in vivo. The following applies: test plants 5-15 cm sprayed, rated after three weeks. As to the method:
(§3) Post-emergence Test [table] To produce a suitable preparation of active compound, 1 part by weight of active compound is mixed with the stated amount of solvent, the stated amount of emulsifier is added and the concentrate is diluted with water to the desired concentration. Test plants which have a height of 5-15 cm are sprayed with the preparation of active compound such that the particular amounts of active compound desired are applied per unit area. The concentration of the spray liquor is chosen so that the particular amounts of active compound desired are applied in 1000 l of water/ha After three weeks, the degree of damage to the plants is rated in % damage in comparison to the development of the untreated control. The figures denote: [table]

For series [5], the system named is crop plants, such as, for example, wheat. The series is described as follows: Post-emergence test, tolerance by crop plants. As to conditions: rated after three weeks. It counts as in vivo. As to the method:
as §3

Series [6] is described as follows: logP by HPLC on reverse-phase column (C 18), neutral range. It counts as physicochemical. As to conditions: neutral range: 0.01 molar aqueous phosphate buffer/acetonitrile gradient, HPLC C 18, 43° C. As to the method:
as §1, with “(b)” for “(a)”, “neutral” for “acidic”, “0.01 molar” for “0.1%”, “phosphate buffer solution,” for “phosphoric acid,”, “^b).” for “^a).”

As to `CSc1nn(Cc2cc(C(F)(F)F)ccc2C(=O)c2cnoc2C2CC2)c(=O)n1C` [Example 2, (5-cyclopropyl-isoxazol-4-yl)-[2-(4-methyl-3-methylthio-5-oxo-4,5-dihydro-[1,2,4]-triazol-1-yl-methyl)-4-trifluoromethyl-phenyl]-methanone], in series [1] (reverse-phase HPLC column (C 18), pH=2.3, read-out: logP (determined at pH=2.3)), the chromatographic logP turned out to be 2.94. `CCOc1nn(Cc2cc(Br)ccc2C(=O)c2c(C(=O)OC)noc2C2CC2)c(=O)n1C` [Example 3]: in series [1], the “logP a)” value was “(IA) logP = 3.15^a)”. For the same compound, the “action against weeds (degree of damage)” value in the series on weeds [2] is on record as “strong action against weeds”. The “tolerance by crop plants” value in series [3] and in series [5] was “tolerated well” in each case. The “activity against weeds (degree of damage)” value in the series with weeds [4] is on record as “very strong activity against weeds”.

As for `CCOn1c(CC)nn(Cc2cc(Br)ccc2C(=O)c2c(C(=O)OC)noc2C2CC2)c1=O` [Example 4], the “logP b)” value in series [6] is listed as “(IA) logP = 3.36^b)”. In addition, in the series on weeds [2], the “action against weeds (degree of damage)” value is on record as “strong action against weeds”. Besides, the “tolerance by crop plants” value in series [3] and in series [5] was “tolerated well” throughout. Also, in the series on weeds [4], the “activity against weeds (degree of damage)” value was “very strong activity against weeds”.

Take `COC(=O)c1noc(C2CC2)c1C(=O)c1ccc(Br)cc1Cn1nc(C(F)(F)F)n(C)c1=O` [Example 5]: the “logP a)” value in series [1] is “(IA) logP = 3.50^a)”. Regarding `CCOc1nn(Cc2cc(C(F)(F)F)ccc2C(=O)c2c(C(=O)OC)noc2C2CC2)c(=O)n1C` [Example 6], the “logP a)” value in series [1] is reported as “(IA) logP = 3.32^a)”.

For the compound `COC(=O)c1noc(C2CC2)c1C(=O)c1ccc(C(F)(F)F)cc1Cn1nc(SC)n(C)c1=O` [Example 7], the “logP a)” value in series [1] was “(IA) logP = 3.22^a)”.

For the compound `CN1CCN(Cc2c(Cl)ccc(C(=O)c3cnoc3C3CC3)c2Cl)C1=O` [ID-1], in series [1], the “logP a)” value is recorded as “logP = 2.48^a)”. On to `COc1c(C(=O)c2cnoc2C2CC2)ccc(Cl)c1CN1CCN(C)C1=O` [ID-2], for which the “logP a)” value in series [1] is reported as “logP = 2.46^a)”. Take `CCOC(=O)c1ccc(C(F)(F)F)cc1Cn1nc(OC)n(C2CC2)c1=O` [VII-91]: in series [1], the logP entry was “logP = 3.08^a)”. The same measure, in the same setting: the result for `COC(=O)c1ccc(C(F)(F)F)cc1Cn1c(=O)oc2ccccc21` [VII-121] reads “logP = 3.37^a)”; that for `COC(=O)c1ccc(C(F)(F)F)cc1CN1C(=O)c2ccccc2S1(=O)=O` [VII-122], “logP = 3.29^a)”; that for `COC(=O)c1ccc(C(F)(F)F)cc1Cn1nnc2ccccc2c1=O` [VII-123], “logP = 3.26^a)”.
